Data from US4808596A, “Imidazo[4,5-b]pyridine compounds and pharmaceutical compositions containing same” (Tokyo Tanabe Company, Ltd., priority 1986, dated 1989).
Read-outs that look alike come from different tables or passages of the source.

How the values were obtained:
Aspirin ulcer = experiment: Inhibitory effect on aspirin ulcer; format: in vivo, male Wistar rats; conditions: Rattus norvegicus; oral, rats; 30 minutes before ligation; aspirin 150 mg/kg; 7 hours; read-out: Inhibitory effect on Aspirin ulcer, ID50
Procedure: (§1) The inhibitory effects of the present compounds [I] on various experimental ulcers were tested by using male Wistar rats, weighing about 200 g, in groups of six and determining the respective ulceration indexes for 5 types of experimental ulcers. In each test, the test compounds were suspended in a 0.5% aqueous solution of carboxymethyl cellulose and administered orally in a series of appropriately selected doses ranging from 1 to 100 mg/kg. The test procedures for 5 types of experimental ulcers were as follows:
In rats which had been fasted for 24 hours, the pyloric end of the stomach was ligated. After 5 minutes, aspirin was orally administered thereto in a dose of 150 mg/kg. Seven hours after ligation, each rat was sacrificed and the length of the ulcer(s) formed in the glandular stomach part was measured. The ulceration index was calculated on the basis of the data thus obtained. The test compounds were administered 30 minutes before ligation.
(§2) The pharmacological effect of the test compounds on each of the aforesaid experimental ulcers was evaluated on the basis of the dose (in mg/kg) required to inhibit the formation of ulcers by 50% (hereinafter referred to as ID50). The ID50 value of each test compound was determined by calculating the difference in ulceration index between the untreated group and each treated group, dividing the difference by the ulceration index of the untreated group to obtain the degree of inhibition, and constructing a dose-response curve on the basis of the data thus obtained. For purposes of comparison, the ID50 values of Omeprazole and Compounds α and β were determined in the same manner as described above and are also shown in Table 4.

physchem = format: physicochemical; conditions: for remaining at 192 h: solid
Procedure: The storage stability of the present compounds [I] was tested by allowing each test compound to stand under severe conditions (i.e., a temperature of 60° C. and a relative humidity of 75%) for 8 days and then determining its percentage of residue according to a thin-layer densitometric method (Bunseki Kagaku, Vol. 23, No. 9, p. 1016, 1974). More specifically, upon completion of the severe treatment, 100 μg of each test compound was applied to a thin-layer plate and this plate was developed with a chloroform-ethanol mixture (volume ratio 10:1). The thin-layer plate used for this purpose was a TLC Plate Aluminum Oxide 60F254 (manufactured by Merck Co.; 0.25 mm in thickness and 20 cm×20 cm in size), and it was developed over a distance of 15 cm. Then, using a Shimazu Two-wavelength Chromatoscanner CS-910 (manufactured by Shimazu Seisakusho), the resulting spot was analyzed at a wavelength of 300-315 nm.
For purposes of comparison, the percentages of residue of Omeprazole (at a measuring wavelength of 300 nm) and Compounds α and β (at a measuring wavelength of 310 nm) were determined in the same manner as described above and are also shown in Table 1.

[1] = test system: Water-immersion stress ulcer; experiment: Inhibitory effect on water-immersion stress ulcer; format: in vivo, male Wistar rats; conditions: Rattus norvegicus; oral, rats; 10 minutes before exposure to the stress; 10 hours; read-out: Inhibitory effect on Water-immersion stress ulcer, ID50
Procedure: as §1
Rats which had been fasted for 15 hours were immobilized in stress cages and immersed chest-deep in a water bath at 21° C. After 10 hours, each rat was sacrificed and the length of the ulcer(s) formed in the glandular stomach part was measured. The ulceration index was calculated on the basis of the data thus obtained. The test compounds were administered 10 minutes before exposure to the stress.
as §2

Indomethacin ulcer = experiment: Inhibitory effect on indomethacin ulcer; format: in vivo, male Wistar rats; conditions: Rattus norvegicus; oral, rats; 30 minutes before indomethacin 25 mg/kg s.c.; 7 hours; read-out: Inhibitory effect on Indomethacin ulcer, ID50
Procedure: as §1
To rats which had been fasted for 24 hours, indomethacin was subcutaneously administered in a dose of 25 mg/kg. After 7 hours, each rat was sacrificed and the length of the ulcer(s) formed in the glandular stomach part was measured. The ulceration index was calculated on the basis of the data thus obtained. The test compounds were administered 30 minutes before administration of indomethacin.
as §2

[2] = test system: various experimental ulcers; experiment: Inhibitory effects on various experimental ulcers (overall statement); design: species or system male Wistar rats; conditions: in vivo
Procedure: as §1, §2

| storage stability (in words) (physchem) | SMILES | ED50 (Aspirin ulcer) [mg/kg] | remaining at 192 h (physchem; 75% rh) [%] | ED50 [1] [mg/kg] | ED50 (Indomethacin ulcer) [mg/kg] | inhibitory effects on various experimental ulcers (in words) [2] | remaining at 192 h (physchem; after treatment at 60° C. and 75% RH for 8 days, read-out: Storage stability, Percentage of residue) [%] |
| --- | --- | --- | --- | --- | --- | --- | --- |
| defective in storage stability | COc1c(C)cnc(C[S+]([O-])c2nc3ncc(C)cc3[nH]2)c1C (stereo not drawn) [Compound β, 2-[2-(3,5-dimethyl-4-methoxy)pyridylmethylsulfinyl]-6-methylimidazo[4,5-b]-pyridine, reference compound] | 23.8 | 9 | 63.3 | 29.5 | not satisfactorily reflected in the in vivo tests | – |
| – | CCCCCCCOc1ccc2[nH]c([S+]([O-])Cc3ncc(C)cc3C)nc2n1 (centres unmarked) [Example 33, 2-[2-(3,5-Dimethyl)pyridylmethylsulfinyl]-5-n-heptyloxyimidazo[4,5-b]pyridine] | 12.6 | 89 | 35.1 | 23.2 | – | – |
| – | COc1c(C)cnc(C[S+]([O-])c2nc3nc(OCC(F)(F)F)ccc3[nH]2)c1C (centres unmarked) [Example 26, 2-[2-(3,5-Dimethyl-4-methoxy)pyridylmethylsulfinyl]-5-(2,2,2-trifluoroethoxy)imidazo[4,5-b]pyridine] | 9.5 | 92 | 30.5 | 15.8 | – | – |
| defective in storage stability | COc1c(C)cnc(C[S+]([O-])c2nc3ncc(Br)cc3[nH]2)c1C (stereo not drawn) [Compound α, 2-[2-(3,5-dimethyl-4-methoxy)pyridylmethylsulfinyl]-6-bromoimidazo[4,5-b]pyridine, reference compound] | ≥ 100 | 0 | ≥ 100 | 78.4 | not satisfactorily reflected in the in vivo tests | – |
| – | COc1c(C)cnc(C[S+]([O-])c2nc3nc(OCC4CC4)ccc3[nH]2)c1C (centres unmarked) [Example 24, 2-[2-(3,5-Dimethyl-4-methoxy)pyridylmethylsulfinyl]-5-cyclopropylmethyloxyimidazo[4,5-b]pyridine] | 5.4 | 94 | 27 | 13.1 | – | – |
| – | CCOc1ccc2[nH]c([S+]([O-])Cc3ncc(C)c(C)c3C)nc2n1 (centres unmarked) [Example 8, 2-[2-(3,4,5-Trimethyl)pyridylmethylsulfinyl]-5-ethoxyimidazo[4,5-b]pyridine] | 10.7 | 96 | 34.2 | 18.8 | – | – |
| – | COc1cc(C[S+]([O-])c2nc3nc(OCC4CC4)ccc3[nH]2)ncc1C (centres unmarked) [Example 13, 2-[2-(4-Methoxy-5-methyl)pyridylmethylsulfinyl]-5-cyclopropylmethyloxyimidazo[4,5-b]pyridine] | 14.5 | 88 | 37.3 | 21.9 | – | – |
| – | COc1ccc2[nH]c([S+]([O-])Cc3ncc(C)cc3C)nc2n1 (centres unmarked) [Example 1, 2-[2-(3,5-Dimethyl)pyridylmethylsulfinyl]-5-methoxyimidazo[4,5-b]pyridine] | 6.3 | 98 | 26.4 | 12.9 | – | – |

| SMILES | storage stability (in words) (physchem) | ED50 (Aspirin ulcer) [mg/kg] | remaining at 192 h (physchem; 75% rh) [%] | ED50 [1] [mg/kg] | ED50 (Indomethacin ulcer) [mg/kg] | inhibitory effects on various experimental ulcers (in words) [2] | remaining at 192 h (physchem; after treatment at 60° C. and 75% RH for 8 days, read-out: Storage stability, Percentage of residue) [%] |
| --- | --- | --- | --- | --- | --- | --- | --- |
| COc1ccc2[nH]c([S+]([O-])Cc3ncc(C)c(OC)c3C)nc2c1 (centres unmarked) [Omeprazole, reference compound] | undergoes a higher degree of deterioration than might be expected | 17.2 | – | 39.7 | 24.7 | – | 3 |
